The term IC50 denotes the concentration that inhibits the measured activity by half.

The test has as its target T1, recombinant human GST-Syk (Homo sapiens, UniProt P43405).
T1 construct: purchased Carna Biosciences 08-176
Briefly: Homogeneous Time-Resolved Fluorescence (HTRF) assay for the recombinant human Syk enzyme. It counts as biochemical. To be noted: recombinant human GST-Syk 5 pM, ATP 25 μM, 10-dose titration 10 μM to 0.508 nM; read-out: rhSYK Activity IC50. In short, it runs like this:
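Detection used time-resolved fluorescence 30 min after adding a quench mix (40 mM EDTA, 15 mM Tris pH 7.5, 0.01% Tween 20) containing 2 nM Europium anti-pTyr antibody and 70 nM streptavidin-APC. This followed 45 min of room-temperature peptide phosphorylation by recombinant GST-tagged human Syk.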
On the technique in general: In TR-FRET formats the signal depends on donor and acceptor labels being close together.
Take `Cc1cc(Nc2nccc(C(F)F)n2)cc(-c2cn(CC3(O)CNC(=O)C3)nn2)c1` (single isomer, unassigned) [Example 31.2, 4-((4-(3-((4-(Difluoromethyl)pyrimidin-2-yl)amino)-5-methylphenyl)-1H-1,2,3-triazol-1-yl)methyl)-4-hydroxypyrrolidin-2-one]: the IC50 came out at 4.7 nM. With `Cc1cc(Nc2nccc(C(F)(F)F)n2)cc(-c2cn(CCS(C)(=O)=O)nn2)c1` [Example 5.62, N-(3-methyl-5-{1-[2-(methylsulfonyl)ethyl]-1H-1,2,3-triazol-4-yl}phenyl)-4-(trifluoromethyl)pyrimidin-2-amine], the IC50 amounted to 46.4 nM. `Cc1cc(Nc2cc(C(F)(F)F)ccn2)nc(-c2cn(C3CCC(C(N)=O)c4ccccc43)nn2)c1` (centres unmarked) [Example 1.11, 4-[4-(4-methyl-6-{[4-(trifluoromethyl)pyridin-2-yl]amino}pyridin-2-yl)-1H-1,2,3-triazol-1-yl]-1,2,3,4-tetrahydronaphthalene-1-carboxamide]: the IC50 was 20.3 nM. On to `Cc1cc(Nc2cc(C(F)(F)F)ccn2)nc(-c2cn(CCc3cn[nH]c3)nn2)c1` [Example 5.105, 4-methyl-6-{1-[2-(1H-pyrazol-4-yl)ethyl]-1H-1,2,3-triazol-4-yl}-N-[4-(trifluoromethyl)pyridin-2-yl]pyridin-2-amine], for which the IC50 was found to be 2.1 nM.

In the case of `Cc1cc(Nc2nccc(C(F)F)n2)cc(-c2cn(CC3OC(=O)NC3C)nn2)c1` (single isomer, unassigned) [Example 7.7, 5-((4-(3-((4-(difluoromethyl)pyrimidin-2-yl)amino)-5-methylphenyl)-1H-1,2,3-triazol-1-yl)methyl)-4-methyloxazolidin-2-one], the IC50 is 9.9 nM. With `Cc1cc(Nc2nccc(C(F)(F)F)n2)cc(-c2cn(CC(O)CO)nn2)c1` (racemic) [Example 5.76, 3-[4-(3-methyl-5-{[4-(trifluoromethyl)pyrimidin-2-yl]amino}phenyl)-1H-1,2,3-triazol-1-yl]propane-1,2-diol], the IC50 was found to be 32.4 nM. The figure for `Cc1cc(Nc2cc(C(F)(F)F)ccn2)nc(-c2cn(C3CCC(C(=O)O)C(C)(C)C3)nn2)c1` (single isomer, unassigned) [Example 3.6, (R or S) 2,2-dimethyl-4-[4-(4-methyl-6-{[4-(trifluoromethyl)pyridin-2-yl]amino}pyridin-2-yl)-1H-1,2,3-triazol-1-yl]cyclohexanecarboxylic acid] is 3.5 nM.

With `Cc1cc(Nc2cc(C(F)(F)F)ccn2)nc(-c2cn(Cc3nnn[nH]3)nn2)c1` [Example 5.109, 4-methyl-6-[1-(1H-tetrazol-5-ylmethyl)-1H-1,2,3-triazol-4-yl]-N-[4-(trifluoromethyl)pyridin-2-yl]pyridin-2-amine], the IC50 turned out to be 12.6 nM. Consider `Cc1cc(Nc2cc(C(F)F)ccn2)nc(-c2cn(CC(C)(O)CO)nn2)c1` (centres unmarked) [Example 21.39, 3-(4-(6-((4-(difluoromethyl)pyridin-2-yl)amino)-4-methylpyridin-2-yl)-1H-1,2,3-triazol-1-yl)-2-methylpropane-1,2-diol], for which the IC50 was 1.8 nM.

Consider `COC(=O)C1CCC(O)(Cn2cc(-c3cc(C)cc(Nc4cc(C(F)(F)F)ccn4)n3)nn2)CC1(C)C` (centres unmarked) [Example 4.12, methyl 4-hydroxy-2,2-dimethyl-4-{[4-(4-methyl-6-{[4-(trifluoromethyl)pyridin-2-yl]amino}pyridin-2-yl)-1H-1,2,3-triazol-1-yl]methyl}cyclohexanecarboxylate], for which the half-inhibitory concentration (IC50) came out at 145 nM. Regarding `Cc1cc(Nc2nccc(C(F)F)n2)cc(-c2cn(C3CCCCC3O)nn2)c1` (centres unmarked) [Example 4.34], the IC50 was determined as 4.1 nM.

On to `Cc1cc(Nc2cc(C(F)(F)F)ccn2)nc(-c2cn(C(CO)c3ccc(C(=O)O)cc3)nn2)c1` (centres unmarked) [Example 3.17, 4-{2-hydroxy-1-[4-(4-methyl-6-{[4-(trifluoromethyl)pyridin-2-yl]amino}pyridin-2-yl)-1H-1,2,3-triazol-1-yl]ethyl}benzoic acid], for which the IC50 turned out to be 0.1 nM.

In the case of `Cc1cc(Nc2cc(C(F)(F)F)ccn2)nc(-c2cn(CCO)nn2)c1` [Example 5.91, 2-[4-(4-methyl-6-{[4-(trifluoromethyl)pyridin-2-yl]amino}pyridin-2-yl)-1H-1,2,3-triazol-1-yl]ethanol], the IC50 stood at 8.3 nM. As to `CCOC(=O)C(CC)n1cc(-c2cc(C)cc(Nc3cc(C(F)(F)F)ccn3)n2)nn1` (racemic) [Example 5.28, ethyl 2-[4-(4-methyl-6-{[4-(trifluoromethyl)pyridin-2-yl]amino}pyridin-2-yl)-1H-1,2,3-triazol-1-yl]butanoate], the concentration for half-maximal inhibition (IC50) came to 76.5 nM. As for `Cc1cc(Nc2cc(C(F)(F)F)ccn2)nc(-c2nnc(C)n2C)c1` [Example 16.1, 6-(4,5-dimethyl-4H-1,2,4-triazol-3-yl)-4-methyl-N-[4-(trifluoromethyl)pyridin-2-yl]pyridin-2-amine], the IC50 came out at 650 nM. Turning to `Cc1cc(Nc2cc(C(F)(F)F)ccn2)nc(-c2cn(C(C)C(=O)NCCc3c[nH]c4ccc(OCc5ccccc5)cc34)nn2)c1` (centres unmarked) [Example 1.30, N-{2-[5-(benzyloxy)-1H-indol-3-yl]ethyl}-2-[4-(4-methyl-6-{[4-(trifluoromethyl)pyridin-2-yl]amino}pyridin-2-yl)-1H-1,2,3-triazol-1-yl]propanamide], the half-inhibitory concentration (IC50) worked out at 1620 nM. On to `Cc1cc(Nc2nccc(OC(C)C)n2)cc(-c2cn(CC(C)(O)C(C)(C)O)nn2)c1` (centres unmarked) [Example 21.31, 2,3-dimethyl-1-[4-(3-methyl-5-{[4-(1-methylethoxy)pyrimidin-2-yl]amino}phenyl)-1H-1,2,3-triazol-1-yl]butane-2,3-diol], for which the IC50 amounted to 21.1 nM. Regarding `Cc1cc(Nc2cc(C(F)(F)F)ccn2)nc(-c2cn([C@@H](C)C(N)=O)nn2)c1` [Example 1.24, (2S)-2-[4-(4-methyl-6-{[4-(trifluoromethyl)pyridin-2-yl]amino}pyridin-2-yl)-1H-1,2,3-triazol-1-yl]propanamide], the IC50 turned out to be 14.2 nM. Take `COC(=O)c1ccc(C(CO)n2cc(-c3cc(C)cc(Nc4cc(C(F)(F)F)ccn4)n3)nn2)cc1` (centres unmarked) [Example 4.16, methyl 4-{2-hydroxy-1-[4-(4-methyl-6-{[4-(trifluoromethyl)pyridin-2-yl]amino}pyridin-2-yl)-1H-1,2,3-triazol-1-yl]ethyl}benzoate]: the IC50 is 40.3 nM. For the compound `COCC(O)Cn1cc(-c2cc(C)cc(Nc3cc(C(F)(F)F)ccn3)n2)nn1` (centres unmarked) [Example 4.23, 1-methoxy-3-[4-(4-methyl-6-{[4-(trifluoromethyl)pyridin-2-yl]amino}pyridin-2-yl)-1H-1,2,3-triazol-1-yl]propan-2-ol], the IC50 stood at 5.4 nM.

`Cc1cc(Nc2nccc(C(F)(F)F)n2)cc(-c2cn(CC3CCO3)nn2)c1` (racemic) [Example 5.50, N-{3-methyl-5-[1-(oxetan-2-ylmethyl)-1H-1,2,3-triazol-4-yl]phenyl}-4-(trifluoromethyl)pyrimidin-2-amine]: the half-inhibitory concentration (IC50) turned out to be 504 nM.

Consider `Cc1cc(Nc2nccc(C(F)(F)F)n2)cc(-c2cn(CC3(O)CCC(C(=O)O)C(C)(C)C3)nn2)c1` (single isomer, unassigned) [Example 3.2, (R or S) 4-hydroxy-2,2-dimethyl-4-{[4-(3-methyl-5-{[4-(trifluoromethyl)pyrimidin-2-yl]amino}phenyl)-1H-1,2,3-triazol-1-yl]methyl}cyclohexanecarboxylic acid], for which the IC50 worked out at 46.8 nM. Regarding `Cc1cc(Nc2cc(C(F)(F)F)ccn2)nc(-c2cn(C(C)C(=O)N3CCc4cc(O)c(O)cc4C(c4ccccc4)C3)nn2)c1` (centres unmarked) [Example 1.54, 3-{2-[4-(4-methyl-6-{[4-(trifluoromethyl)pyridin-2-yl]amino}pyridin-2-yl)-1H-1,2,3-triazol-1-yl]propanoyl}-1-phenyl-2,3,4,5-tetrahydro-1H-3-benzazepine-7,8-diol], the IC50 came out at 134 nM.

For `COc1ccnc(Nc2cc(C)cc(-c3cn(CC(C)(O)C(C)(C)O)nn3)c2)n1` (centres unmarked) [Example 21.12, 1-(4-{3-[(4-methoxypyrimidin-2-yl)amino]-5-methylphenyl}-1H-1,2,3-triazol-1-yl)-2,3-dimethylbutane-2,3-diol], the IC50 was 28.3 nM. The figure for `Cc1cc(Nc2nccc(C(F)(F)F)n2)cc(-n2cc(C3(O)CCC(O)CC3)nn2)c1` (stereo not drawn) [Example 15.16, trans-1-[1-(3-methyl-5-{[4-(trifluoromethyl)pyrimidin-2-yl]amino}phenyl)-1H-1,2,3-triazol-4-yl]cyclohexane-1,4-diol] is 117 nM; for `Cc1cc(Nc2nccc(C(F)F)n2)cc(-c2cn(C3CCCCC3(C)O)nn2)c1` (single isomer, unassigned) [Example 7.20, 2-[4-(3-{[4-(difluoromethyl)pyrimidin-2-yl]amino}-5-methylphenyl)-1H-1,2,3-triazol-1-yl]-1-methylcyclohexanol] it is 15.4 nM. Regarding `Cc1cc(Nc2nccc(C(F)(F)F)n2)cc(-c2cn(C[C@H](O)CC#N)nn2)c1` [Example 5.98, (3R)-3-hydroxy-4-[4-(3-methyl-5-{[4-(trifluoromethyl)pyrimidin-2-yl]amino}phenyl)-1H-1,2,3-triazol-1-yl]butanenitrile], the IC50 is 20 nM.

Take `Cc1cc(Nc2cc(C(F)(F)F)ccn2)nc(-c2cn(C(C)C(=O)NCCc3cccc(Oc4ccccc4)c3)nn2)c1` (centres unmarked) [Example 1.36, 2-[4-(4-methyl-6-{[4-(trifluoromethyl)pyridin-2-yl]amino}pyridin-2-yl)-1H-1,2,3-triazol-1-yl]-N-[2-(3-phenoxyphenyl)ethyl]propanamide]: the IC50 amounted to 1460 nM.

In the case of `Cc1cc(Nc2cc(C(F)(F)F)ccn2)nc(-c2cn(C(C)C(=O)N3CCc4ccccc4C3)nn2)c1` (centres unmarked) [Example 1.28, 6-{1-[2-(3,4-dihydroisoquinolin-2(1H)-yl)-1-methyl-2-oxoethyl]-1H-1,2,3-triazol-4-yl}-4-methyl-N-[4-(trifluoromethyl)pyridin-2-yl]pyridin-2-amine], the IC50 worked out at 645 nM.

(Values after patent US9586931B2 (Merck Sharp & Dohme Corp., priority 2012, dated 2017).)
